Measured values reported in patent publication US20110097274A1, “Carbon-11 and fluorine-18 labeled radioligands for positron emission tomography (PET) imaging for the brain serotonin transporters” (priority 2002, published 2011).
Values joined by “and” are separate entries in the source; they are usually repeats but may differ in a detail not shown here. Identical values can stand only once. Like-named read-outs stand apart in the source and are kept apart here.

Legend:
SERT = experiment: Baboon PET imaging: brain uptake, kinetic analysis and SERT parameters; assay type: in vivo; details: for Kp: male, baboon, brain, intravenous
Method: PET imaging protocol: PET experiments (n=20) were performed at Columbia University. Two adult male baboons (baboon A and B) were studied twice with each of the 5 radioligands (4 experiments per radioligand). All experiments took place within a 9-month period. Baboons A and B were 31 kg and 21 kg in weight at the beginning of the experimental period and 28 and 22 kg at the end, respectively. Test and retest experiments with the same radioligand were obtained on different days, with an average interval of 117±53 days.
Experiments were performed according to protocols approved by the Columbia-Presbyterian Medical Center Institutional Animal Care and Use Committee. Fasted animals were immobilized with ketamine (10 mg/kg i.m.), and anesthetized with 1.8% isoflurane via an endotracheal tube. Vital signs were monitored every 10 minutes and the temperature was kept constant at 37° C. with heated water blankets. An i.v. perfusion line was used for hydration and injection of radioligands and nonradioactive drugs. A catheter was inserted in a femoral artery for arterial blood sampling. Head was positioned at the center of the field of view as defined by imbedded laser lines. PET imaging was performed with the ECAT EXACT HR+PET scanner (Siemens/CTI, Knoxville, Tenn.). In 3D mode, this camera provides an in-plane resolution of 4.3 mm, 4.5 mm, 5.4 mm and 8.0 mm full width at half maximum (FWHM) at a distance of 0, 1, 10 and 20 cm from the center of the field of view, respectively (Brix et al., 1997). A 15 minute transmission scan was obtained prior to radioligand injection for attenuation correction. Activity was injected i.v. over 30 seconds. […] Emission data was collected in the 3D mode for 91 minutes as 21 successive frames of increasing duration (6*10 seconds, 2*1 minutes, 4*2 minutes, 2*5 minutes, and 7*10 minutes).
Image analysis: A Magnetic Resonance Image (MRI) of each baboon's brain was obtained for the purpose of identifying the regions of interest (ROI) (T1-weighted axial MRI sequence, acquired parallel to the anterior-posterior commissure, TR 34 msec, TE 5 msec, flip angle of 45 degrees, slice thickness is 1.5 mm, zero gap, matrix 1.5 mm×1 mm×1 mm voxels). The following regions were drawn on the MR images: cerebellum, midbrain, thalamus, striatum, hippocampus, temporal cortex, cingulate cortex and occipital cortex.
PET emission data were attenuation-corrected using the transmission scan, and frames were reconstructed using a Shepp filter (cutoff 0.5 cycles/projection rays). Reconstructed image files were then processed using the image analysis software MEDx (Sensor Systems, Inc., Sterling, Va.). An image was created by summing all the frames, and this summed image was used to define the registration parameters with the MR image, using between-modality automated image registration (AIR) algorithm (Woods et al., 1993). Registration parameters were then applied to the individual frames for registration to the MR data set. Regional boundaries were transferred to the individual registered PET frames, and time-activity curves were measured and decay-corrected. Right and left regions were averaged. For a given animal, the same regions were used for all radioligands.
Brain uptake: Total brain uptake was expressed as percentage of the injected dose per gram of tissue (% ID g^−1) in a region encompassing the entire brain. Regional peak time was defined as the mid-time of the frame associated with the highest activity value. To estimate the degree of wash-out from the brain captured during the scan interval (91 minutes), the decrease in activity from the peak frame to the last frame was calculated and expressed in percentage of the peak activity.
Kinetic analysis: Regional total distribution volumes (VT, mL g^−1) were derived with kinetic analysis of the regional time-activity curves, using the arterial plasma concentrations as input function. […]

[1] = Plasma free fraction (f1) and filter retention by ultrafiltration; assay type: in vitro ADME, baboon; details: mean ± SD of four experiments
Method: Plasma and ultrafiltrate activities were counted, and f1 was calculated as the ratio of ultrafiltrate activity to total plasma activity. Triplicate aliquots of the radioligand in pH 7.4 Tris buffer were also processed to determine the filter retention of free tracer.

[2] = BP = VT ROI − VT CER, baboons, mean ± SD of four experiments
[3] = Mean ± SD of four experiments in two baboons
[4] = baboon A, experiments of FIGS. 5-9 (FIG. 10)
[5] = baboons, mean ± SD of four experiments
[6] = last scan 90 minutes, baboons, mean ± SD of four experiments
[7] = one-tissue compartment model, baboons, mean ± SD of four experiments

CN(C)Cc1ccccc1Sc1ccc(I)cc1N [[^11C]ADAM]
Binding potential Cingulate Cortex (SERT; [2]): 8.8 ± 3.9 mL/g
Binding potential Hippocampus (SERT; [2]): 12.6 ± 3.3 mL/g
Binding potential Midbrain (SERT; [2]): 28.5 ± 6.7 mL/g
Binding potential Occipital Cortex (SERT; [2]): 4.9 ± 3.8 mL/g
Binding potential Striatum (SERT; [2]): 17.8 ± 3.7 mL/g
Binding potential Temporal Cortex (SERT; [2]): 10.1 ± 5.0 mL/g
Binding potential Thalamus (SERT; [2]): 31.4 ± 6.1 mL/g
Equilibrium specific to non-specific partition coefficient (V3″) Cingulate Cortex (SERT; Baboon A, single experiment): 0.28 and 0.43
Equilibrium specific to non-specific partition coefficient (V3″) Hippocampus (SERT; Baboon A, single experiment): 0.41 and 0.49
Equilibrium specific to non-specific partition coefficient (V3″) Midbrain (SERT; Baboon A, single experiment): 1.04 and 0.81
Equilibrium specific to non-specific partition coefficient (V3″) Striatum (SERT; Baboon A, single experiment): 0.65 and 0.59
Equilibrium specific to non-specific partition coefficient (V3″) Temporal Cortex (SERT; Baboon A, single experiment): 0.41 and 0.47
Equilibrium specific to non-specific partition coefficient (V3″) Thalamus (SERT; Baboon A, single experiment): 1.18 and 0.92
Equilibrium specific to non-specific partition coefficient (V3″) Cingulate Cortex (SERT; Baboon B, single experiment): 0.23 and 0.26
Equilibrium specific to non-specific partition coefficient (V3″) Hippocampus (SERT; Baboon B, single experiment): 0.38 and 0.47
Equilibrium specific to non-specific partition coefficient (V3″) Midbrain (SERT; Baboon B, single experiment): 0.91 and 1.25
Equilibrium specific to non-specific partition coefficient (V3″) Occipital Cortex (SERT; Baboon B, single experiment): 0.07 and 0.12
Equilibrium specific to non-specific partition coefficient (V3″) Striatum (SERT; Baboon B, single experiment): 0.56 and 0.68
Equilibrium specific to non-specific partition coefficient (V3″) Temporal Cortex (SERT; Baboon B, single experiment): 0.18 and 0.30
Equilibrium specific to non-specific partition coefficient (V3″) Thalamus (SERT; Baboon B, single experiment): 1.05 and 1.26
Equilibrium specific to non-specific partition coefficient (V3″) Cingulate Cortex (SERT; [3]): 0.30 ± 0.09
Equilibrium specific to non-specific partition coefficient (V3″) Hippocampus (SERT; [3]): 0.44 ± 0.05
Equilibrium specific to non-specific partition coefficient (V3″) Midbrain (SERT; [3]): 1.00 ± 0.19
Equilibrium specific to non-specific partition coefficient (V3″) Occipital Cortex (SERT; [3]): 0.16 ± 0.11
Equilibrium specific to non-specific partition coefficient (V3″) Striatum (SERT; [3]): 0.62 ± 0.06
Equilibrium specific to non-specific partition coefficient (V3″) Temporal Cortex (SERT; [3]): 0.34 ± 0.13
Equilibrium specific to non-specific partition coefficient (V3″) Thalamus (SERT; [3]): 1.10 ± 0.15
Thalamus to cerebellum ratio equal to true equilibrium ratio (V3″+1) (SERT; [4]): 1.92
Time at which measured thalamus to cerebellum ratio equals the true equilibrium ratio (estimate of peak specific binding) (SERT; [4]): 55 min
K1, average of all regions and all animals (SERT; baboons): 1.09 ± 0.35 mL/g/min
k2, average of all regions and all animals (SERT; baboons): 0.028 ± 0.011 min⁻¹
V3″ expressed in percentage of [^11C]McN 5652 V3″ (SERT; baboons, combining all regions): 128±24%
Mean regional peak uptake time (SERT; baboons, mean of all regions): 37 ± 18 min
Mean regional wash-out (% decrease between peak time and last scan) (SERT; baboons, mean of all regions): 25±14%
Cingulate Cortex to cerebellum activity ratio at 90 minutes (SERT; [5]): 1.29 ± 0.07
Hippocampus to cerebellum activity ratio at 90 minutes (SERT; [5]): 1.45 ± 0.06
Midbrain to cerebellum activity ratio at 90 minutes (SERT; [5]): 1.96 ± 0.18
Occipital Cortex to cerebellum activity ratio at 90 minutes (SERT; [5]): 1.14 ± 0.09
Regional uptake peak time Cerebellum (SERT; [5]): 14 ± 5 min
Regional uptake peak time Cingulate Cortex (SERT; [5]): 32 ± 17 min
Regional uptake peak time Hippocampus (SERT; [5]): 46 ± 8 min
Regional uptake peak time Midbrain (SERT; [5]): 49 ± 22 min
Regional uptake peak time Occipital Cortex (SERT; [5]): 30 ± 18 min
Regional uptake peak time Striatum (SERT; [5]): 39 ± 15 min
Regional uptake peak time Temporal Cortex (SERT; [5]): 39 ± 13 min
Regional uptake peak time Thalamus (SERT; [5]): 51 ± 24 min
Striatum to cerebellum activity ratio at 90 minutes (SERT; [5]): 1.65 ± 0.13
Temporal Cortex to cerebellum activity ratio at 90 minutes (SERT; [5]): 1.33 ± 0.08
Thalamus to cerebellum activity ratio at 90 minutes (SERT; [5]): 2.05 ± 0.23
Total brain uptake at 45 min (SERT; baboons, region encompassing the entire brain): 0.017±0.001 % ID g^−1
Regional activity wash-out: % decrease from peak to last scan, Cerebellum (SERT; [6]): 45 ± 8%
Regional activity wash-out: % decrease from peak to last scan, Cingulate Cortex (SERT; [6]): 34 ± 7%
Regional activity wash-out: % decrease from peak to last scan, Hippocampus (SERT; [6]): 15 ± 6%
Regional activity wash-out: % decrease from peak to last scan, Midbrain (SERT; [6]): 10 ± 7%
Regional activity wash-out: % decrease from peak to last scan, Occipital Cortex (SERT; [6]): 36 ± 10%
Regional activity wash-out: % decrease from peak to last scan, Striatum (SERT; [6]): 23 ± 6%
Regional activity wash-out: % decrease from peak to last scan, Temporal Cortex (SERT; [6]): 25 ± 8%
Regional activity wash-out: % decrease from peak to last scan, Thalamus (SERT; [6]): 12 ± 5%
Kp (SERT; cingulate cortex, one-tissue compartment model, baboons, mean ± SD of four experiments, read-out: VT Cingulate Cortex): 37.3 ± 8.5
Kp (SERT; hippocampus, one-tissue compartment model, baboons, mean ± SD of four experiments, read-out: VT Hippocampus): 41.1 ± 8
Kp (SERT; midbrain, one-tissue compartment model, baboons, mean ± SD of four experiments, read-out: VT Midbrain): 57 ± 10.2
Kp (SERT; occipital cortex, one-tissue compartment model, baboons, mean ± SD of four experiments, read-out: VT Occipital Cortex): 33.5 ± 8.3
Kp (SERT; striatum, one-tissue compartment model, baboons, mean ± SD of four experiments, read-out: VT Striatum): 46.3 ± 8.4
Kp (SERT; temporal cortex, one-tissue compartment model, baboons, mean ± SD of four experiments, read-out: VT Temporal Cortex): 38.6 ± 9.7
Kp (SERT; thalamus, one-tissue compartment model, baboons, mean ± SD of four experiments, read-out: VT Thalamus): 59.9 ± 10.1
K1 Cerebellum (SERT; [7]): 1.23 ± 0.44 mL/g/min
K1 Cingulate Cortex (SERT; [7]): 1.20 ± 0.38 mL/g/min
K1 Hippocampus (SERT; [7]): 0.85 ± 0.32 mL/g/min
K1 Midbrain (SERT; [7]): 1.00 ± 0.35 mL/g/min
K1 Occipital Cortex (SERT; [7]): 1.12 ± 0.33 mL/g/min
K1 Striatum (SERT; [7]): 1.15 ± 0.45 mL/g/min
K1 Temporal Cortex (SERT; [7]): 1.02 ± 0.37 mL/g/min
K1 Thalamus (SERT; [7]): 1.14 ± 0.32 mL/g/min
K2 Cerebellum (SERT; [7]): 0.043 ± 0.012 min⁻¹
K2 Cingulate Cortex (SERT; [7]): 0.033 ± 0.009 min⁻¹
K2 Hippocampus (SERT; [7]): 0.021 ± 0.006 min⁻¹
K2 Midbrain (SERT; [7]): 0.018 ± 0.006 min⁻¹
K2 Occipital Cortex (SERT; [7]): 0.034 ± 0.010 min⁻¹
K2 Striatum (SERT; [7]): 0.025 ± 0.008 min⁻¹
K2 Temporal Cortex (SERT; [7]): 0.027 ± 0.009 min⁻¹
K2 Thalamus (SERT; [7]): 0.020 ± 0.006 min⁻¹
VT Cerebellum (VT CER, nonspecific distribution volume) (SERT; [7]): 28.5 ± 4.8 mL/g
Filter retention ([1]; activity remaining on filter, radioligand dissolved in saline): 88.2 ± 5.2%
fraction unbound at 20 min ([1]; male, monkey, baboon plasma, ultrafiltration): 0.009 ± 0.007
